# Laboratory results taken from BindingDB's records for doi:10.1021/jm200288r (National Institute On Drug Abuse-Intramural Research Program, 2011).
# Assay: Antagonist activity at human dopamine D2 receptor expressed in CHOp cells assessed as inhibition of quinpirole-induced mitogenesis
row,Compound,IC50 [nM]
1,COc1ccccc1N1CCN(CC(F)CCNC(=O)c2cc3ccccc3s2)CC1 (configuration not stated) [N-(3-Fluoro-4-(4-(2-methoxyphenyl)piperazin-1-yl)butyl)-benzo[b]thiophene-2-carboxamide],421
2,"COc1ccc2oc(C(=O)NCCC(F)CN3CCN(c4cccc(Cl)c4Cl)CC3)cc2c1 (configuration not stated) [N-(4-(4-(2,3-Dichlorophenyl)piperazin-1-yl)-3-fluorobutyl)-5-methoxybenzofuran-2-carboxamide]",1600
